Source: patent publication US9289447B2, “Chemotherapeutic methods and compositions” (Gilead Biologics, Inc., priority 2009, dated 2016)

T1: LOXL2 (Homo sapiens, UniProt Q9Y4K0)
T1 sequence (Q9Y4K0 26-774): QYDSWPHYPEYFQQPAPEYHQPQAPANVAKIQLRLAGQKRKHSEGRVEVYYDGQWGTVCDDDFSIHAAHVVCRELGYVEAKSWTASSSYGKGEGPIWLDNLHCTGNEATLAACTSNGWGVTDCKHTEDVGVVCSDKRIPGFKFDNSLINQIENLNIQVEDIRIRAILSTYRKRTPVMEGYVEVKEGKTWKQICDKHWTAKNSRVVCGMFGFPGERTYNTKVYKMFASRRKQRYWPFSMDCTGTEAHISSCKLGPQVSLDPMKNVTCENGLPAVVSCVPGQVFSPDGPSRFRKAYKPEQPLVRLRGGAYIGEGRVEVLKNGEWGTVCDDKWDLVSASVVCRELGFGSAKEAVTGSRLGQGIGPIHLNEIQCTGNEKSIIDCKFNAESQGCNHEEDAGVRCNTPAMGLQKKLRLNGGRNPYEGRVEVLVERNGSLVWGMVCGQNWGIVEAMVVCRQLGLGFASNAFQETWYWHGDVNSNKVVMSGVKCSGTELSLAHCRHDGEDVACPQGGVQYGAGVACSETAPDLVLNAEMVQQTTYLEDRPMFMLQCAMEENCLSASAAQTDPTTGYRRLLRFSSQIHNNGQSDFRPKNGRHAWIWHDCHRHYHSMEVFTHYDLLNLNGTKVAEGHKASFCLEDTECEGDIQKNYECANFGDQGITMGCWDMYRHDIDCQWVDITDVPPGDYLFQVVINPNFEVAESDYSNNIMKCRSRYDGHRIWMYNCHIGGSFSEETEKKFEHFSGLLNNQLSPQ


How the values were obtained:
Panc-1 cells = experiment: Chemotherapeutic sensitivity of Panc-1 cells on extracellular matrices with anti-LOXL2 antibody; assay type: cell-based; settings: Panc-1 cells plated on different extracellular matrices
Method: (§1) Panc-1 or Capan-1 cells (pancreas adenocarcinoma cell lines, ATCC, Manassas, Va.) are resuspended in medium containing 10-50 μg/mL anti-LOXL2 or control IgG antibody. Cells are seeded into 96 well tissue culture plates (10^3-10^4 cells in 100 μL per well) coated with poly-L-lysine, collagen I, collagen IV, fibronectin, or Matrigel™ (BD Biosciences, San Jose, Calif.). Alternatively, cells are plated in standard 96 well tissue culture plates (Costar, VWR International, West Chester, Pa.). Cells are incubated overnight at 37° C. in a 5% CO2 incubator. After sixteen to twenty hours, various concentrations of gemcitabine, docetaxel, doxorubicin, 5-FU or erlotinib are added. Cells are incubated for 3-5 days at 37° C. in a 5% CO2 incubator, and the number of remaining live cells are quantified using the Cell Titer-Glo® luminescent cell viability assay (Promega, Madison, Wis.) according to the manufacturer's instructions. For each condition, samples are assayed in triplicate. The data are analyzed using GraphPad Prism software (or equivalent) to calculate IC50 values from a 4-parameter logistic equation.

MDA-MB-435 cells = experiment: Chemotherapeutic sensitivity of MDA-MB-435 cells on extracellular matrices with anti-LOXL2 antibody; assay type: cell-based, human; settings: MDA-MB-435 cells plated on different extracellular matrices
Method: MDA-MB-435 cells (breast adenocarcinoma cell lines, ATCC, Manassas, Va.) are resuspended in medium containing 10-50 μg/mL anti-LOXL2 or control IgG antibody. Cells are seeded into 96 well tissue culture plates (10^3-10^4 cells in 100 μL per well) coated with poly-L-lysine, collagen I, collagen IV, fibronectin, or Matrigel™ (BD Biosciences, San Jose, Calif.). Alternatively, cells are plated in standard 96 well tissue culture plates (Costar, VWR International, West Chester, Pa.). Cells are incubated overnight at 37° C. in a 5% CO2 incubator. After sixteen to twenty hours, various concentrations of cisplatin (DDP), methotrexate, doxorubicin, docetaxel, gemcitabine, or 5-FU are added. Cells are incubated for 3-5 days at 37° C. in a 5% CO2 incubator, and the number of remaining live cells are quantified using the Cell Titer-Glo® luminescent cell viability assay (Promega, Madison, Wis.) according to the manufacturer's instructions. For each condition, samples are assayed in triplicate. The data are analyzed using GraphPad Prism software (or equivalent) to calculate IC50 values from a 4-parameter logistic equation.

Capan-1 cells = experiment: Chemotherapeutic sensitivity of Capan-1 cells on extracellular matrices with anti-LOXL2 antibody; assay type: cell-based; settings: Capan-1 cells plated on different extracellular matrices
Method: as §1

MDA231 cells = experiment: Erlotinib sensitivity (live cell number) of siRNA-transfected MDA231 cells; assay type: cell-based, human; settings: for effect of siRNA transfection on sensitivity of the cells to erlotinib: MDA 231 cells grown on collagen, 5 days exposure to erlotinib; for effect of siRNA on sensitivity of the cells to erlotinib: MDA 231 cells grown on tissue culture plastic, separate experiments
Method: Cells from each of the four aforementioned lines were seeded at 3,000 cells per well in 96-well plates (VWR International, West Chester, Pa.), and cultured in Dulbecco's Modified Eagle's Medium supplemented with 10% fetal bovine serum (DMEM/FBS) at 37° C., 5% CO2 and atmospheric oxygen. Cells were cultured either in untreated wells or in collagen-coated wells, obtained or prepared as described above. Twenty-four hours later, medium was replaced with fresh medium containing various concentrations of erlotinib (LC Laboratories, Woburn, Mass.), cisplatin (Calbiochem, Gibbstown, N.J.) or methotrexate (Calbiochem, Gibbstown, N.J.). After 5 days' culture in the presence of the drug, live cell numbers were determined using the Cell Titer-Glo® luminescent cell viability assay (Promega, San Luis Obispo, Calif.) according to the manufacturer's instructions. For each cell line, three samples were assayed at each drug concentration.
(§2) MDA231 cells were seeded at 7,500 cells per well in 96-well plates (VWR International, West Chester, Pa.) in DMEM/FBS at 37° C., 5% CO2 and atmospheric oxygen. Cells were transfected at the time of seeding with […] RNA oligonucleotide, using the Dharmafect transfection reagent according to the manufacturer's instructions (Thermo Scientific, Lafayette, Colo.). Twenty-four hours later, the medium was replaced with medium containing various concentrations of erlotinib (LC Laboratories, Woburn, Mass.). After 5 days continuous exposure to drug, live cell number was determined as described in Example 1. For each condition, (LOX siRNA, LOXL2 siRNA, or non-targeting siRNA), three samples were assayed at each drug concentration. In addition, levels of mRNAs encoding LOX and LOXL 2 were determined in the in the samples transfected with the LOX- and LOXL2-targeted siRNAs, and normalized to levels of RPL19 mRNA (which encodes a ribosomal protein).

LOX mRNA = experiment: Quantitative PCR of LOX mRNA in siRNA-transfected MDA 231 cells; assay type: cell-based, human; settings: normalized to RPL19 mRNA, compared to non-targeting siRNA, FIG. 13
Method: as §2, with “For each condition, (LOX siRNA, LOXL2 siRNA, or non-targeting siRNA), three samples were assayed at each drug concentration.” left out
(§3) For RNA analysis, mRNA was harvested using an RNEasy Mini kit (Qiagen, Valencia, Calif.) according to the manufacturer's instructions. A quantitative PCR reaction was assembled using the Brilliant II Core reagent kit according to the manufacturer's instructions (Agilent Technologies, Cedar Creek, Tex.). The quantitative PCR reaction cycle was as follows: 30 min at 50° C., 10 min at 95° C. and 40 cycles of 15 sec at 95° C. in combination with 1 min at 60° C.

LOXL2 mRNA = experiment: Quantitative PCR of LOXL2 mRNA in siRNA-transfected MDA 231 cells; assay type: cell-based, human; settings: normalized to RPL19 mRNA, compared to non-targeting siRNA, FIG. 13
Method: as §2, with “For each condition, (LOX siRNA, LOXL2 siRNA, or non-targeting siRNA), three samples were assayed at each drug concentration.” left out
as §3

LOXL2 [1] = target: T1, LOXL2; settings: as disclosed in US 2009/0053224; cited from earlier work
LOXL2 [2] = target: T1, LOXL2; settings: as disclosed in US 2009/0053224; cited from earlier work; remark: listed apart in the source

Row | Molecule | sensitivity of cells to the chemotherapeutic in the presence of anti-LOXL2 antibodies (Panc-1 cells) | sensitivity of cells to the chemotherapeutic in the presence of anti-LOXL2 antibodies (MDA-MB-435 cells) | sensitivity of cells to the chemotherapeutic in the presence of anti-LOXL2 antibodies (Capan-1 cells) | further results
1 | O=c1[nH]cc(F)c(=O)[nH]1 [5-FU, 5-fluorouracil] | increased sensitivity | increased sensitivity | increased sensitivity | –
2 | N.N.[Cl][Pt][Cl] [cisplatin (DDP), cis-diaminedichloroplatinum(II)] | – | increased sensitivity | – | –
3 | CC(=O)O[C@@]12CO[C@@H]1C[C@H](O)[C@@]1(C)C(=O)[C@H](O)C3=C(C)[C@@H](OC(=O)[C@H](O)[C@@H](NC(=O)OC(C)(C)C)c4ccccc4)C[C@@](O)([C@@H](OC(=O)c4ccccc4)[C@H]21)C3(C)C [docetaxel] | increased sensitivity | increased sensitivity | increased sensitivity | –
4 | COc1cccc2c1C(=O)c1c(O)c3c(c(O)c1C2=O)C[C@@](O)(C(=O)CO)C[C@@H]3O[C@H]1C[C@H](N)[C@H](O)[C@H](C)O1 [doxorubicin] | increased sensitivity | increased sensitivity | increased sensitivity | –
5 | C#Cc1cccc(Nc2ncnc3cc(OCCOC)c(OCCOC)cc23)c1 [erlotinib, N-(3-ethynylphenyl)-6,7-bis(2-methoxyethoxy)quinazolin-4-amine] | increased sensitivity | – | increased sensitivity | killing of cells by erlotinib (MDA231 cells; MDA 231 cells on collagen matrix, transfected with siRNA nonhomologous to LOX or LOXL2, FIG. 14): resistant to killing
6 | Nc1ccn([C@@H]2O[C@H](CO)[C@@H](O)C2(F)F)c(=O)n1 [gemcitabine] | increased sensitivity | increased sensitivity | increased sensitivity | –
7 | CN(Cc1cnc2nc(N)nc(N)c2n1)c1ccc(C(=O)N[C@@H](CCC(=O)O)C(=O)O)cc1 [methotrexate] | – | increased sensitivity | – | –
8 | LOX-targeted siRNA: short RNA homologous to regions near the 3' end of LOX mRNA, from Invitrogen: ACAGGGAUUGAGUCCUGGCUGUUAU (listed as RNA, chemistry not given here) | – | – | – | effect of siRNA transfection on sensitivity of the cells to erlotinib (MDA231 cells; FIG. 14): greatly increased sensitivity; effect of siRNA on sensitivity of the cells to erlotinib (MDA231 cells): little or no effect; reduction of levels of LOX mRNA (LOX mRNA): over two-fold
9 | LOXL2-targeted siRNA: siRNA homologous to the second SRCR domain of LOXL2, from Invitrogen: UCAACGAAUUGUCAAAUUUGAACCC (listed as RNA, chemistry not given here) | – | – | – | effect of siRNA transfection on sensitivity of the cells to erlotinib (MDA231 cells; FIG. 14): greatly increased sensitivity; effect of siRNA on sensitivity of the cells to erlotinib (MDA231 cells): little or no effect; reduction of levels of LOXL2 mRNA (LOXL2 mRNA): five-fold
10 | M20: monoclonal anti-LOXL2 antibody described in co-owned US 2009/0053224; variable regions SEQ ID NO: 12 and 13 (antibody, V domains shown) VH: MEWSRVFIFLLSVTAGVHSQVQLQQSGAELVRPGTSVKVSCKASGYAFTYYLIEWVKQRPGQGLEWIGVINPGSGGTNYNEKFKGKATLTADKSSSTAYMQLSSLTSDDSAVYFCARNWMNFDYWGQGTTLTVSS VL: MRCLAEFLGLLVLWIPGAIGDIVMTQAAPSVSVTPGESVSISCRSSKSLLHSNGNTYLYWFLQRPGQSPQFLIYRMSNLASGVPDRFSGSGSGTAFTLRISRVEAEDVGVYYCMQHLEYPYTFGGGTKLEIK | – | – | – | extent of inhibition of LOXL2 enzymatic activity (LOXL2 [1]): partial inhibitor; mode of inhibition of LOXL2 enzymatic activity (LOXL2 [1]): non-competitive inhibitor; binding site on LOXL2 (LOXL2 [2]): binds to the SRCR3-4 domain of LOXL2
